According to patent US9980936B2, “BH4 antagonists and methods related thereto” (Emory University, priority 2014, dated 2018):
Entries after “also recorded” stand apart in the source; their conditions may differ.

What was measured:
[1] = system: Plasmid pUC19 DNA; assay: electrophoretic mobility shift assay (EMSA); assay type: binding
Protocol: To test whether BDA-2 reacts with DNA as a crosslinker, electrophoretic mobility shift assay (EMSA) was performed. Cisplatin, a known DNA binding agent, was used as positive control. Plasmid pUC19 DNA was incubated with BDA-2 or cisplatin.

[2] = system: H1299 cells overexpressing Bcl2 AAAA mutant; assay: cell survival of H1299 cells overexpressing compound Bcl2 AAAA mutant; assay type: cell-based
Excerpt: A panel of Bcl2 mutants were generated within the BH4 domain at the specific residues that were identified by the initial docking simulations, including D10A, N11A, R12A, E13A, M16A, K17A, H20A and D31A Bcl2 mutants. A compound Bcl2 mutant D10A/N11A/R12A/E13A (AAAA) was created. Recombinant proteins of these mutants were generated for BDA-2/Bcl2 binding analysis using a competitive fluorescence polarization. […] Second, WT and all Bcl2 mutants were exogenously overexpressed in H1299 cells that express undetectable levels of endogenous Bcl2.

[3] = system: lung cancer xenografts derived from H460 cells; assay: H460 lung cancer xenografts
Protocol: Each group included 8 mice. Tumor volume was measured once every 2 days. After 14 days, the mice were sacrificed and the tumors were removed and analyzed.
To assess whether BDA-366 induced suppression of tumor growth via apoptosis in vivo, representative samples from harvested tumor tissues were analyzed by immunohistochemistry (IHC) for active caspase 3 or TUNEL assat.

[4] = system: H460, H157, DMS53, DMS153 and H146 cells expressing Bcl2 shRNA; assay: apoptotic cell death (Annexin-V/PI, FACS) after Bcl2 shRNA knock-down; assay type: cell-based; conditions: 1 μM, 72 h
Protocol: To determine whether Bcl-2 is the relevant target at the cellular level and whether cell killing is truly dependent on this particular mechanism, Bcl2 was specifically knocked down using three different Bcl2 shRNAs that target different regions in Bcl2 gene in five lung cancer cell lines, including two NSCLC cell lines (H460 and H157) and three SCLC cell lines (DMS53, DMS153 and H146). […] Cells expressing Bcl2 shRNA1, shRNA2, shRNA3 or control shRNA were treated with BDA-2 (1 μM) for 72 h. The level of apoptotic cell death was determined by analysis of Annexin-V/PI binding by FACS.

[5] = system: Bcl2 ΔBH2 deletion mutant protein; assay: fluorescence polarization assay with fluorescent Bak peptide; assay type: binding
Protocol: (§1) Purified recombinant WT and a panel of Bcl2 BH domain deletion mutant proteins (i.e. ΔBH1, ΔBH2, ΔBH3 and ΔBH4) were commercially obtained from ProteinX Lab. To directly measure BDA-2/Bcl2 binding, a fluorescence polarization assay with a fluorescent Bak peptide (5′-[…]) was performed.

[6] = system: Bcl2 ΔBH3 deletion mutant protein; assay: as above; assay type: binding
Protocol: as §1

[7] = system: BH4 domain deficient Bcl2 mutant protein (ΔBH4); assay: as above; assay type: binding
Protocol: as §1

[8] = system: Bcl2 ΔBH1 deletion mutant protein; assay: as above; assay type: binding
Protocol: as §1

[9] = biological target: Bcl2 (Homo sapiens, UniProt P10415); assay: as above; assay type: binding
Protocol: as §1

[10] = system: H460 cells; assay: SRB cell growth assay, combination with mTOR inhibitor; assay type: cell-based, human; conditions: BDA-366 100 nM, RAD001 1 nM, alone or in combination, 72 hr
Protocol: Cell growth was analyzed by sulforhodamine B (SRB) colorimetric assay.

[11] = 10, 20, 30 mg/kg/d i.p., 14 days

Bcl2, sequence (P10415 whole entry): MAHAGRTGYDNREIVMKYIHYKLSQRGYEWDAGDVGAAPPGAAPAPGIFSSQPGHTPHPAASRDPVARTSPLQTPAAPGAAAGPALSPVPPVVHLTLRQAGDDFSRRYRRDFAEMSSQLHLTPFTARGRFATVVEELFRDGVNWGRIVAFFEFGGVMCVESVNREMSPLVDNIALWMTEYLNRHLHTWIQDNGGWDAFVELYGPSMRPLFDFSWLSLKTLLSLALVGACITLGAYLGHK

CCN(CC)CC(O)CNc1ccc(NCC2CO2)c2c1C(=O)c1ccccc1C2=O (centres unmarked) [BDA-366, 1-((3-(diethylamino)-2-hydroxypropyl)amino)-4-((oxiran-2-ylmethyl)amino)anthracene-9,10-dione]
binding to pUC19 DNA causing mobility shift [1]: not
cell survival on exposure, AAAA mutant overexpressed [2]: significantly prolonged cell survival
body weight ([3]; 30 mg/kg): Weight loss was observed
neutrophils, lymphocytes, RBC and platelets in blood ([3]; 30 mg/kg): no decreases in neutrophils, lymphocytes, red blood cells (RBC) and platelets (PLT)
apoptosis in tumor tissues (active caspase 3 IHC or TUNEL) [3, 11]: dose-dependent apoptosis induction
tumor growth / repression of lung cancer in vivo [3, 11]: potently suppress lung cancer growth in vivo; also recorded: dose-dependent repression of lung cancer in vivo
tumor growth / repression of lung cancer in vivo ([3]; 10, 20, 30 mg/kg/d i.p., 14 days, listed as BDA-2): represses lung cancer in vivo
histopathology of harvested normal tissues ([3]; 10-30 mg/kg/d): no evidence of normal tissue toxicities
kidney (BUN) and liver (ALT and AST) function ([3]; mouse, in vivo): in the normal range
sensitivity (apoptotic cell death) after depletion of endogenous Bcl2 [4]: significantly reduced sensitivity
binding after deletion of BH2 [5]: did not significantly affect its BDA-2 binding
binding after deletion of BH3 [6]: did not significantly affect its BDA-2 binding
binding to ΔBH4 Bcl2 [7]: failed to bind
binding after deletion of BH1 [8]: did not significantly affect its BDA-2 binding
Ki ([9]; fluorescent Bak peptide, WT Bcl2): 3.3 ± 0.73 nM
inhibitory constant (Ki) value ([9]; purified Bcl2 protein, BH4 domain): nanomolar level
cell growth inhibition [10]: partially inhibited lung cancer cell growth
